In patent publication US10213407B2, “Compounds and methods for inhibiting production of trimethylamine” (The Procter & Gamble Company, priority 2015, dated 2019):

system: Proteus mirabilis 29906 (Pm) lysate; test: Inhibition of formation of TMA from choline in Proteus mirabilis lysate (d9-choline to d9-TMA, LC-MS/MS); assay type: biochemical; conditions: conversion of choline to TMA; Pm lysate 1.5 mg/mL protein, 50 μM d9-choline chloride, 37° C., two hours; read-out: TMA Inhibition (IC50, mol/L)
Protocol: EXAMPLE 2 Assay for identifying and characterizing compounds that inhibit the formation of TMA from choline.
This example provides an exemplary assay for identifying and characterizing compounds that inhibit the formation of TMA from choline.
Proteus mirabilis 29906 (Pm) strain was grown aerobically overnight in 500 ml of Nutrient Broth media (3 g/L beef extract, 5 g/L Peptone; Difco #234000) at 37° C. with 250 rpm shaking. The biomass was pelleted by centrifugation at 6000×g for 12 minutes at 4° C. The cell pellet was suspended in 240 mL of ice-cold 1× Phosphate Buffered Saline (Ca^2+ and Mg^2+ free). Ninety micrograms of Lysozyme (Sigma #L6876 Lot #SLBG8654V; Sigma-Aldrich Corp., St. Louis, Mo.) was added and incubated with 320 rpm shaking for 30 minutes at 4° C. Lysis was achieved via French press with a 4° C. prechilled 1″ diameter chamber at 1000 psi (high ratio; internal PSI equivalent ˜16000). The lysate was centrifuged at 6,000×g for 12 minutes at 4° C. to pellet extra debris. A protein concentration of the centrifuged lysate supernatant was determined by a BCA Protein Assay Kit (Pierce #23225; Thermo Fisher Scientific Co., Waltham, Mass.) and protein concentration adjusted to 3 mg/ml with 1× Dulbecco's phosphate buffered saline (DPBS). The centrifuged supernatant lysate was aliquoted into 20 mL volumes and stored frozen at −80° C.
Proteus mirabilis 29906 (Pm) lysate was diluted to 1.5 mg/mL protein with 1×DPBS. Choline chloride (CC) (1M stock) was added to reach a final concentration of 2.5 mM choline chloride. The mixture was mixed using a vortex mixer for approximately 15 seconds and incubated at 37° C. for 22 hours. After incubation, 150 μL of CC-treated Pm lysate was dispensed into a deep-well plate (polypropylene, 2 mL volume, Corning Axygen catalogue #P-DW-20-C). Candidate IC50 compounds from TABLE 1 and vehicle control (respective vehicle control of DMSO or water), or control compounds (IC50 control, 8-Quinolinol hemisulfate salt (Sigma Catalog #55100)) were added at a 1:100 dilution (e.g., 1.5 μL per well). The plates were agitated on a plate shaker for 1 minute. d9-choline chloride (1.5 μL of 5 mM) was added to all wells to reach a final d9-choline chloride concentration of 50 μM.
The plates were again agitated on a plate shaker for 1 minute and incubated at 37° C. for two hours. After incubation, 1.5 μL of formic acid was added to each well (final concentration=1% formic acid). The plates were agitated on a plate shaker for 1 minute and placed on ice. Cell lysate samples were spiked with stable isotope labeled internal standard (22.5 μL of 6 μg/mL of 13C3-trimethylamine (13C3-TMA) was added to each sample), then d9-trimethylamine (d9-TMA), trimethylamine (TMA) and 13C3-TMA were isolated from the lysate after protein precipitation as described below. Acetonitrile acidified with 0.1% formic acid, 600 μL, was added to each sample which was then centrifuged (2,100 g for 20 minutes) to pellet the protein and other precipitates. The supernatant was removed and analyzed as described below. The TMA, d9-TMA and 13C3-TMA in the isolated supernatant samples were subjected to gradient High Performance Liquid Chromatography (HPLC) analysis on a Waters Atlantis HILIC Silica column, from Waters Corp., Milford, Mass., (2.1×50 mm, 3 μm particles) with an Atlantis Silica HILIC Sentry guard column, from Waters Corp., Milford, Mass., (100 Å, 3 μm, 2.1 mm×10 mm), 10 mM ammonium formate in water with 0.1% formic acid as mobile phase A and 0.1% formic acid in acetonitrile as mobile phase B. Detection and quantitation was achieved by tandem mass spectrometry operating under multiple reaction monitoring (MRM) MS/MS conditions (m/z 60.1→44.1 for TMA, m/z 69.1→49.1 for d9-TMA, m/z 63.0→46.1 for 13C3-TMA). TMA and d9-TMA calibration standards (STD), prepared in 80/20/0.1% acetonitrile/Water/Formic Acid, were used to construct a regression curve by plotting the response (peak area TMA/peak area 13C3-TMA) versus concentration for each standard. […]

Compound	IC50 [µM]
CC[N+](C)(CC)CCCN=C=S [Compound 2, 3-Isothiocyanato-N,N-diethyl-N-methylpropanaminium iodide]	10.6
CCOC(=O)C(=O)C[N+](C)(C)CCN=C=S [Compound 5, N-(Ethoxypropyl-2,3-dione)-2-isothiocyanato-N,N-dimethylethan-1-aminium bromide]	769
CCOC(=O)C(=O)C[N+](C)(C)CCCN=C=S [Compound 6]	14.4
CC[N+](CC)(CCBr)CCCN=C=S [Compound 7, N-(2-Bromoethyl)-3-isothiocyanato-N,N-diethylpropan-1-aminium triflate]	18.2
CC[N+](CC)(CC#N)CCCN=C=S [Compound 9, N-Cyanomethyl-3-isothiocyanato-N,N-diethylpropan-1-aminium bromide]	60.5
